Holding throughout (assay): NCI tumour cell line growth inhibition, 48 h
For test [1], the system named is OVCAR-5 ovarian.
Test [2] has as its system CCRF-CEM leukemia.
The subject of test [3] is U251 CNS.
Test [4] relates to RPMI-8226 leukemia.
Test [5] concerns SF-268 CNS.
Test [6] concerns OVCAR-4 ovarian.
The subject of test [7] is SNB-75 CNS.
Test [8] has as its system HOP-62 NSCLC.
The subject of test [9] is EKVX NSCLC.
Test [10] deals with OVCAR-3 ovarian.

The structures appear in SMILES notation. Where “and” joins values, the source holds several entries; their conditions need not be identical. Equal values may be shown once.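 Tested at 5 concentrations; 48 h exposure; 96-well plates; endpoints linearly interpolated, else capped at highest concentration. GI50 is the concentration that inhibits growth by half. TGI denotes the concentration required for complete inhibition of growth.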

Experimental findings from PubChem BioAssay (NCI) are described below.

Take `COC1=CC(=O)C2C(C1=O)[C@@H]1c3ccccc3C[C@H]21` (stereo partly drawn): the TGI in [1], in [2], in test [3], in test [4], in test [5] and in [6] was over 100 µM each time. Further, the TGI in [7], in [8], in test [9] and in test [10] was over 100 µM in each case.

For the molecule `Cc1ccc(/C(=N\N=C(N)N)c2ccccc2)cc1`, the GI50 in test [1] was 0.83 µM; in test [2] it was 0.689 µM; in [3], 0.365 µM; in test [4], 0.692 µM; in test [5] it was 0.868 µM; in test [6], 0.791 µM. Further, the GI50 in test [7] is 0.288 µM; in [8] it was 0.672 µM; in test [9], 0.998 µM; in test [10], 0.228 µM. Moreover, the TGI in test [1] was 18.3 µM; in test [2] it was over 100 µM; in test [3] it was 11.5 µM; in [4] it was 42.7 µM; in test [5], 17.3 µM; in [6], 18.6 µM. The TGI in [7] was 4.94 µM; in test [8] it was 14.3 µM; in test [9], 26 µM; in [10], 0.597 µM.

Consider `COC(=O)C1C(O)CC(c2ccccn2)N(Cc2ccccc2)C1c1ccccn1` (stereo not drawn), for which the TGI in test [1], in test [2], in test [3], in [4], in test [5] and in test [6] was over 100 µM in each case. Moreover, the TGI in test [7], in [8], in test [9] and in test [10] was over 100 µM throughout.

For `COc1ccccc1/C=C1\CCC(CCN(C)C)(C2=CCCC2)C1=O` (stereo not drawn), the TGI in test [1] is 82.5 µM; in [2], 51.6 µM; in test [3], 31.1 µM; in [4], 41.3 µM; in test [5], 40.1 µM; in [6], 35.2 µM. Moreover, the TGI is 54.7 µM in [7], 34.5 µM in test [8], 18.6 µM in test [9] and 40.6 µM in test [10].

`CC(C)C1(O)C(c2ccccc2)=C(c2ccccc2)C(c2ccccc2)=C1c1ccccc1`: the TGI in [1] was over 100 µM; in test [2], over 100 µM; in test [3], 18.7 µM; in test [4] it was 5.26 µM; in test [5], 27.6 µM; in test [6] it was over 100 µM. Also, the TGI in [7] amounted to 58.5 µM; in test [8], 30.1 µM; in [9] it was 47 µM; in test [10], 27.8 µM.

As to `CSC(CC(=O)O)C(=O)O` (stereo not drawn), the TGI in test [1], in [2], in [3], in test [4], in test [5] and in test [6] was over 100 µM throughout. In addition, the TGI in test [7], in [8], in test [9] and in test [10] was over 100 µM throughout.

For `COc1ccc(-c2oc3c(OC)c(OC)c(OC)c(O)c3c(=O)c2OC)cc1OC`, the TGI in test [1] is over 100 µM; in test [2], over 71.3 µM; in [3], over 100 µM; in [4] it was 59.3 µM; in test [5], over 55.1 µM; in test [6] it was over 100 µM. In addition, the TGI was 13.2 µM in test [7], over 100 µM in test [8], over 100 µM in test [9] and over 93.6 µM in test [10].

Take `CCc1n(Cc2ccc3ccccc3n2)cc[n+]1Cc1ccc2ccccc2n1`: the GI50 was 1.48 µM in test [1]; 0.388 µM in test [2]; 0.186 µM in test [3]; 0.0172 µM in [4]; 0.453 µM in test [5]; 0.0378 µM in test [6]. Also, the GI50 is 0.141 µM in test [7], 4.66 µM in test [8], 0.343 µM in test [9] and 0.0878 µM in test [10]. Besides, the TGI was 22.9 µM in [1]; 15.4 µM in [2]; 13.5 µM in test [3]; 10.1 µM in test [4]; 14.2 µM in test [5]; 10.4 µM in test [6]. Further, the TGI was determined as 2.4 µM in test [7], 31.5 µM in [8], 41.5 µM in test [9] and 6.66 µM in test [10].

Take `COc1cc(/C=C2\CCC/C(=C\c3cc(OC)c(O)c(OC)c3)C2=O)cc(OC)c1O`: the GI50 was 5.22 µM in [1]; 8.24 µM in test [6]; 5.93 µM in test [8]; 5.14 µM in test [9]; 3.47 µM in test [10]. The TGI in [1] is 7.4 µM and 63.3 µM; in [2], 17.8 µM; in test [3], 2.76 µM and 3.14 µM; in [4] it was 7.54 µM; in [5], over 100 µM; in [6] it was 75 µM and > 100 µM. Further, the TGI in test [7] was over 100 µM; in test [9], 75 µM and > 100 µM.

As to `Cc1ccc(-c2cc(-c3ccco3)c(C#N)c(=O)[nH]2)cc1`, the TGI in [1], in [2], in test [3], in [4], in test [5] and in test [6] was over 100 µM throughout. Besides, the TGI in test [7], in [8], in [9] and in [10] was over 100 µM throughout.

`O=[N+]([O-])c1ccc(S(=O)Cc2ccccc2)c([N+](=O)[O-])c1` (stereo not drawn): the GI50 in test [1] was 14.5 µM; in [2], 0.739 µM; in [3], 11.4 µM; in test [4], 1.89 µM; in test [5] it was 13.4 µM; in test [6], 1.5 µM. Moreover, the GI50 is 12 µM in test [7], 11.6 µM in [8], 12.8 µM in [9] and 1.84 µM in test [10]. The TGI in test [1] worked out at 29.9 µM; in [2], 3 µM; in test [3], 24.3 µM; in test [4], 4.46 µM; in test [5] it was 26.6 µM; in [6] it was 2.93 µM. For the same molecule, the TGI in [7] is 25.2 µM; in test [8], 23.8 µM; in test [9], 26.6 µM; in test [10], 3.24 µM.

For the molecule `C1C[OH+]CC[OH+]CCNCC[OH+]CC[OH+]CCN1.[Cl-].[Pt+4]`, the GI50 in [1] is over 100 µM; in [2] it was 30.1 µM; in test [3], over 100 µM; in test [4], over 100 µM; in test [5], over 100 µM; in test [6], over 100 µM. The GI50 in test [7], in test [8], in [9] and in test [10] was over 100 µM in each case. Further, the TGI in test [1], in [2], in test [3], in test [4], in test [5] and in [6] was over 100 µM each time. The TGI in [7], in test [8], in test [9] and in [10] was over 100 µM throughout.

In the case of `C=C1SC(=Nc2c(C)cc(C)cc2C)N(C(=O)c2sc3ccccc3c2Cl)C12CCCCC2`, the GI50 in test [1] was over 100 µM; in test [2] it was 62.4 µM; in test [3], over 100 µM; in test [4], 21.6 µM; in test [5] it was over 100 µM; in test [6], over 100 µM. Further, the GI50 in test [7] is over 100 µM; in [8] it was over 100 µM; in [9] it was 38.6 µM; in [10], 88.7 µM. The TGI in test [1], in test [2], in test [3], in [4], in test [5] and in test [6] was over 100 µM each time. Moreover, the TGI in test [7], in test [8], in [9] and in test [10] was over 100 µM in each case.

With `COc1ccc(C2SCC(=O)N2NC(=O)C(O)c2ccccc2)cc1OC` (stereo not drawn), the GI50 in [1], in test [2], in test [3], in [4], in [5] and in test [6] was over 100 µM throughout. Moreover, the GI50 in test [7], in [8], in test [9] and in [10] was over 100 µM in each case. The TGI in test [1], in test [2], in [3], in [4], in test [5] and in test [6] was over 100 µM throughout. The TGI in test [7], in [8], in test [9] and in test [10] was over 100 µM throughout.
